From patent US11779565B2, “Small organic molecules for use in the treatment of neuroinflammatory disorders” (THE MEDICAL RESEARCH, INFRASTRUCTURE AND HEALTH SERVICES …, priority 2017, dated 2023)

Assays:
BMP-4 = biological target: T1, BMP-4 (Homo sapiens, UniProt P12644); test: ATDC5 bioassay with rhBMP-4 stimulation instead of rhBMP-2 (ALP); type: cell-based, mouse; conditions: ATDC5 cells; for effect on ALP production induced by BMP-4 compared with BMP-2: 2.5 μM and 5 μM; for inhibition at 2.5 µM: read-out: inhibition of BMP-4 (ALP induction)
T1 sequence (P12644 293-408): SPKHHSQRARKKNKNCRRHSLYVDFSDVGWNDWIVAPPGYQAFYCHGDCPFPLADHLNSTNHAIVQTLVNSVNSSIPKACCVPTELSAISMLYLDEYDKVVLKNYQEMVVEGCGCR
Experimental: (§1) Poly-L-lysine (Sigma-Aldrich) was added to 384-well plates and was removed after 30 min of incubation at RT. An assay medium containing DMEM/F12, 2% FBS, 100 units/ml penicillin, […] streptomycin (Biological industries) was added to each well. […] ATDC5 cells (Sigma-Aldrich) were harvested, re-suspended in assay medium and added to a final concentration of 2000 cells/well. Finally, heparin (Sigma-Aldrich) was added to a final concentration of 2 μg/ml. The cells were incubated for 48 hours at 37° C. with 5% CO2 in a humidified chamber in the presence or absence of potential small molecule inhibitors of BPM-2. After incubation, ALP levels and cell viability were determined using a completely automated protocol. Cells were washed with PBS, lysed using a lysis buffer containing 0.2% Triton X-100 in PBS supplemented with a protease inhibitor cocktail (Sigma-Aldrich) and incubated for 25 min at RT. ALP level was then determined by addition of CDP-Star® chemiluminescent substrate (Sigma-Aldrich) and measurement of luminescence after incubation for 25 min at RT in the dark. Cell viability was finally determined by addition of CellTiter-Glo® reagent (Biological Industries) and luminescence measurement after 10 min of incubation.
Due to the high homology between BMP-2 and BMP-4, the ability of the SMs to inhibit BMP-2 and BMP-4 signaling (similar to the effect of the anti-BMP-2/4 mAb) was also examined.

RR-EAE mice = test: RR-EAE model in SJL mice, clinical score; type: in vivo; conditions: for EAE clinical score: 10 mg/kg/day i.p.
Experimental: RR-EAE was induced in SJL female mice (6-8 week old) by subcutaneous immunization (day 0) with 100 μg/mouse proteolipid protein peptide (PLP139-151, synthesized by Sigma-Aldrich) in 0.1 ml PBS. The peptide was emulsified in an equal volume of Complete Freund's Adjuvant (CFA, from DIFCO) containing 500 μg Mycobacterium tuberculosis H37RA (MT, from DIFCO). The mice also received an intraperitoneal injection of 300 ng pertussis toxin (PTX, from Sigma-Aldrich) in 0.2 ml PBS. A second injection of PTX (300 ng/mouse) was given 48 h later.
Mice were monitored for symptoms of RR-EAE and were scored as follows: “0” for no disease; “1”, tail paralysis; “2”, hind limb weakness; “3”, hind limb paralysis; “4”, hind limb and forelimb weakness/paralysis; “5”, moribund.
The effect of the small molecule inhibitors that were identified in Example 1 above was further tested in vivo using the experimental autoimmune encephalomyelitis (EAE) model in SJL mice. EAE serves as a model for Relapsing/Remitting multiple sclerosis (MS). EAE was induced as described in the experimental procedures section. SMs 1-9 or vehicle alone (5% DMSO in PBS) were daily administered by intraperitoneal injections of 250 μg/mouse (10 mg/kg/day), starting from day 9 post immunization, for the next 30 days. The animals were monitored until day 45 post-induction for symptoms of EAE and scored as follows: 0=no disease, 1=tail paralysis, 2=hind limb weakness, 3=hind limb paralysis, 4=hind limb plus forelimb paralysis, and 5=moribund.
Experiments were repeated with the 4 above-mentioned molecules SM1, SM6, SM7 & SM9. The experiment was conducted under similar conditions as the previous one, except that two dosages of the molecules were administered: a dose of 10 mg/kg and dose of 20 mg/kg, namely 250 μg/mouse and 500 μg/mouse on days 9-38 (see FIG. 4).

ATDC5 cells = test: Cell viability (CellTiter-Glo) in the ATDC5 HTS bioassay; type: cell-based; conditions: library screening
Experimental: as §1
An ATDC5 cell based assay for assessing structure-function relationship of BMP-2 and BMP receptor IA was originally described in Keller et al (Nature Structural & Molecular Biology 2004 11, 481-488). In order to screen a large volume of potential therapeutic agents the ATDC5 cell based bioassay for detecting BMP inhibition was adapted for use in high throughput screening. The bioassay is based on the stimulation of alkaline phosphatase (ALP) production in mouse ATDC5 cells by administration of BMP-2 and heparin, and measurement of ALP levels in the presence of the potential inhibitors. The assay was characterized by the following features: • (a) optimal conditions for HTS automated instruments were found so as to obtain a satisfying gap (i.e. positive Z-prime, above 0.5) between ALP production in the presence of BMP-2, to ALP production in the absence of BMP-2 (no stimulation). • (b) a sensitive method was designed for ALP determination for HTS—namely, the use of CDP-Star® chemiluminescent substrate and luminescence measurement. • (c) both ALP production and cells' viability were measured simultaneously. This was achieved by using CellTiter-Glo® Luminescent Cell Viability Assay for assessing the cells' viability after the luminescent signal by CDP-Star® has faded. […]
A library of small molecules (SM) was screened using the High Throughput Screening bioassay described above. […] The ALP levels and cell viability are shown in FIG. 2 as a percentage of the ALP or viability luminescence levels in the presence of BMP-2 without the SM. […]

[1] = first experiment, 10 mg/kg/day i.p. from day 9 for 30 days, vs. vehicle
[2] = second experiment, 10 and 20 mg/kg, vs. vehicle
[3] = second experiment, high dosage 20 mg/kg, days 9-38, vs. vehicle
[4] = second experiment, low dosage 10 mg/kg, days 9-38, vs. vehicle
[5] = first experiment, day 21 post immunization (vehicle 1.1±0.3)

Structure (SMILES)	effect on ALP production induced by BMP-4 compared with BMP-2 (BMP-4)	effect on EAE clinical score (RR-EAE mice; [1])	EAE clinical score (RR-EAE mice; first experiment, day 19 post immunization (vehicle 1.1±0.3))	EAE clinical score (RR-EAE mice; first experiment, day 27)	number of mice with moderate-severe EAE (clinical score at least 2) (RR-EAE mice; [2])	effect on EAE clinical score (RR-EAE mice; [3])	effect on EAE clinical score (RR-EAE mice; [4])	cytotoxicity in mouse ATDC5 cells (ATDC5 cells)	effect on EAE clinical score (RR-EAE mice; second experiment, 10 and 20 mg/kg, days 9-38)	number of mice with a more severe EAE (RR-EAE mice; second experiment, during the second relapse (vehicle 5-6 mice))	number of mice with a more severe EAE (RR-EAE mice; second experiment, during the third relapse (vehicle 8-9 mice))	inhibition at 2.5 µM (BMP-4)	EAE clinical score (RR-EAE mice; [5])	mice died by the end of the experiment (RR-EAE mice; second experiment, high dose group 20 mg/kg, day 48)	mice died by the end of the experiment (RR-EAE mice; second experiment, low dose group 10 mg/kg, day 48, n=14)
COC(=O)c1sccc1N/N=C(\C#N)S(=O)(=O)c1cccs1 [SM1, Methyl 3-[(2E)-2-[cyano(thiophen-2-ylsulfonyl)methylidene]hydrazinyl]thiophene-2-carboxylate]	same effect	beneficial effect	0.5±0.2	0.3±0.3	beneficial effect	trend for amelioration	significant beneficial effect	without leading to cytotoxicity							
O=C(Nc1cccc(C(F)(F)F)c1)c1ccc([N+](=O)[O-])o1 [SM6, N2-[3-(trifluoromethyl)phenyl)-5-nitro-2-furamide]	same effect	did not show any beneficial effect			reduced			without leading to cytotoxicity	milder and not significant	2-3 mice	5-7 mice				
N#Cc1c(O)nsc1Nc1ccccc1C(F)(F)F [SM7, 3-hydroxy-5-[2-(trifluoromethyl)aniline]isothiazole-4-carbonitrile]	inhibit BMP-2 slightly more than BMP-4	beneficial effect						without leading to cytotoxicity				29.8%	0.6±0.1	all of the mice died	8 mice
CS(=O)(=O)c1noc(-c2ccc(Cl)cc2)c1C#N [SM9, 5-(4-chlorophenyl)-3-methylsulfonyl-1,2-oxazole-4-carbonitrile]	inhibit BMP-2 slightly more than BMP-4	beneficial effect			beneficial effect	ameliorated EAE	ameliorated EAE	without leading to cytotoxicity				18.9%	0.8±0.3		
